Laboratory results as given in patent US20250127857A1, “A COMPOSITION COMPRISING IL-36 AND/OR IL-18 FOR USE IN TREATING OCULAR DISORDERS” (THE PROVOST, FELLOWS, FOUNDATION SCHOLARS, & THE OTHER …, priority 2021, published 2025).

Tests used:
[1] = test system: cldn5, tricellulin, ZO-1 and VE-cadherin mRNA in HRMEC; experiment: Real-time qPCR of junction components; type: cell-based, human; conditions: 100 ng/ml IL-36β or 10 μM RepSox, 24 hours
Source text: […]

HRMEC [2] = experiment: Wound healing (scratch) assay in HRMEC, IL-18; type: cell-based, human; conditions: IL-18, VEGF, bFGF each 50 ng/ml, closure expressed as % closure
Experimental: FIG. 16 illustrates HRMEC migration in response to IL-18 and IL-1α stimulation, wherein confluent HRMEC monolayers were scratched with a pipette tip and treated with IL-18 (50 ng/ml) or IL-1α (10 ng/ml) along with bFGF (50 ng/ml) or VEGF (50 ng/ml) as positive controls, wherein images were taken immediately following scratch (0 hrs) and at 4, 8 and 24 hours following scratch, wherein images were analysed using ImageJ imaging software, wherein data are presented as mean±SEM of 6 separate experiments in triplicate, wherein data were analysed using 2way ANOVA with Dunnett's multiple comparison test. (*p<0.05, *p<0.01, ****p<0.0001);
Cells were seeded on to a 12-well plate and grown until they reached confluency. 24 hours prior to the scratch, culture medium was replaced with 0.5% Serum media without supplements for 24 hours to induce cell quiescence. Cell monolayers were scratched once down the centre of the well using a p200 pipette tip and washed once with warmed DPBS to remove debris then replaced with 0.5% serum supplemented media with experimental treatments. Images were acquired using an Olympus IX51 inverted microscope with Cell^A imaging software (Olympus). Images were taken at baseline immediately following scratch and at suitable timepoints for up to 24 (HRMECs) or 48 hours (BMVECs). The area within the scratch was quantified using ImageJ software, and each timepoint was normalised to its baseline and expressed as % closure.

IL-36R = conditions: HRMEC, VEGF treatment over timepoints
occludin = experiment: Occludin expression in HRMEC (qPCR and immunoblotting); type: cell-based, human; conditions: for expression of tight junction protein occludin: single cytokine
Experimental: FIG. 18 illustrates IL-18 drives expression of tight junction protein occludin and inhibits VEGF depletion of occluding, wherein HRMECS were treated with either VEGF, IL-18 or IL-1α for the timepoints indicated (top panel) and cells were prepared for RNA isolation and qPCR with expression of occluding measured, wherein HRMECs were treated with VEGF, IL-18 or IL-1 or combinations of these cytokines and cells were prepared for immunoblotting for expression of occludin and b-actin (lower panels);
Following transfer, membranes were blocked by incubating in 5% non-fat dried milk (Marvel) in TBS-T for 1 hour at room temperature whilst shaking. Membranes were incubated with primary antibody diluted in either 5% Marvel or BSA, depending on antibody specification, overnight at 4° C. with gentle agitation. Primary antibody was recovered and stored at −20. Membranes were washed three times in TBS-T for 5 minutes and membranes were incubated with secondary antibody, diluted in 5% Marvel, for 1 hour at room temperature. Secondary antibody was removed and discarded, and excess secondary was removed from the membranes by three 5-minute washes in TBS-T.
All RT-PCR assays were carried out using the SensiFAST SYBR Hi-ROX Kit (Bioline) with primers designed using Primer-BLAST (NCBI). For each target a master-mix comprising of 4 μl SYBR Green mix, 0.5 μl of Forward primer (4 μM) and 0.5 μl of Reverse primer (4 μM) along and 3 μl of RNAse free H2O was prepared and mixed thoroughly by vortexing. 8 μl of master-mix was added to each well of a 0.1 mL MicroAMP® Fast 96-well Reaction Plate (Applied Biosystems), along with 2 μl of cDNA and sealed using Optical adhesive film (Applied Biosystems) and spun down for 30 seconds in a centrifuge fitted with microplate rotor (Eppendorf) before running. Plate were run using a QuantStudio 3 real-time PCR System (Applied Biosystems) or the StepOnePlus Real-Time PCR System (Applied Biosystems), with run conditions set as: 50° C. for 2 mins, 95° C. for 10 minutes, 40 cycles of 95° C. for 15 seconds then 60° C. for 1 minute. To assess the quality of Primers a melt-curve stage was added: 95° C. for 1 second, 60° C. for 20 seconds, 95° C. for 1 second. Data were analysed using the QuantStudio™ Design & Analysis software (Applied Biosystems) and using the comparative Ct (ΔΔCt) method where test samples were normalised to endogenous control (β-Actin) followed by normalising the ΔCt of test samples to sample control (untreated sample), then calculating 2^−ΔΔCt to find the relative fold change of test samples over sample control.

HRMEC [3] = experiment: MTS assay of HRMEC proliferation with VEGF and IL-18; type: cell-based, human; conditions: VEGF alone
Experimental: FIG. 17 illustrates HRMEC proliferation in response to VEGF is enhanced with IL-18 pre-treatment, wherein HRMECs were treated with increasing concentrations of VEGF alone or with a 24 hour pre-treatment of IL-18 at 10, 100 or 1000 ng/ml, wherein increasing VEGF induced an increase in cell proliferation which was enhanced following IL-18 treatment;
Cell viability was assessed using the CellTiter 96 AQueous One Solution cell proliferation MTS assay (Promega) as per the manufacturer's instructions. Cell monolayers were treated for times indicated where treatment supplemented media was then removed and incubated with 20 μl of CellTiter 96 AQueous One Solution in 100 μl of complete growth medium in a humidified incubator at 37° C. with 5% CO2for 1-4 hours. The absorbance of each well was measured at 490 nm using a SynergyMX plate reader (Biotek, Gen5™).

Row | Molecule | ZO-1 transcript (qPCR) [1] | mean difference in wound closure vs no treatment (xdiff) (HRMEC [2]; 8 hours post scratch) | mean difference in wound closure vs no treatment (xdiff) (HRMEC [2]; 24 hours post scratch) | IL-36R expression (IL-36R) | expression of tight junction protein occludin (occludin) | HRMEC proliferation with increasing doses of VEGF (HRMEC [3]) | rescue of VEGF mediated occludin inhibition (occludin; combination with VEGF, immunoblotting)
1 | Cc1cccc(-c2[nH]ncc2-c2ccc3ncccc3n2)n1 [RepSox] | appeared unaffected |  |  |  |  |  | 
2 | FGF: bFGF (50 ng/ml) used as positive control in scratch assay |  | −4.366 | −28.4 |  |  |  | 
3 | VEGF |  | −9.35 | −12.25 | reduces IL-36R expression | reduced expression of occludin | increase in proliferation up to 5 ng/ml | 
4 | IL-1α: human IL-1α (R&D systems) (protein, UniProt P01583 113-271, looked up) Interleukin-1 alpha: SAPFSFLSNVKYNFMRIIKYEFILNDALNQSIIRANDQYLTAAALHNLDEAVKFDMGAYKSSKDDAKITVILRISKTQLYVTAQDEDQPVLLKEMPEIPKTITGSETNLLFFWETHGTKNYFTSVAHPNLFIATKQDYWVCLAGGPPSITDFQILENQA |  |  |  |  | reduced expression of occludin |  | does not rescue VEGF mediated occludin inhibition
